Assay results from patent US5648369A, “Aminoalkylpyridine compounds which are useful as anitconvulsant drugs, excitatory amino acid inhibitors and NMDA sigma receptor antagonists” (priority 1991, dated 1997).

Tests used:
[1] = tested on: MES and scMet seizures; test: Anticonvulsant screening, ASP classification (MES and scMet tests) in mice, i.p.; format: in vivo, mouse; conditions: for ASP classification (Table 8): Table 8 comparison, titled MES Test, Rat, p.o.; for minimal effective dose: ip, i.p. mouse, read-out: ASP Group Classification
[2] = tested on: endogenous L-glutamate release; test: Ca2+ dependent, K+ evoked release of endogenous L-glutamate in cerebrocortical slices; format: cell-based, guinea pig; conditions: Cavia porcellus, means ± SEM, n = 4
[3] = tested on: MK-801; test: Radioligand binding, MK-801, [3H]MK-801
Text: (§1) EAAs are known to play important roles in excitatory neurotransmission in partial seizures as discussed earlier. […] Thus, several aminoalkylpyridines of this invention are effective antagonists of NMDA-receptor mediated EAA neurotransmission and function as noncompetitive NMDA antagonists and thus can be used to advantage in epilepsy, stroke and Alzheimer's disease.
(§2) EAAs are known to play important roles in excitatory transmission in partial seizures as discussed earlier. In general, antieptileptic drugs effective against MES seizures alter ionic transport across excitable membranes [Porter, R. J., and Pitlick, W. H., In "Basic and Clinical Pharmacology", 4th Edn., B. G. Katzung, Ed., Appleton and Lange, CA 1989, pp. 287-303]. Based on this rationale, the aminoalkylpyridines may be expected to attenuate EAA neurotransmission. Indeed, evaluation of potential displacement activity of #2 at all inhibitory and excitatory amino acid receptor types and subtypes using appropriate radioligands, indicate that this aminoalkylpyridine inhibits at 10 μM concentration, 49% of the binding of [^3 H]DTG, a ligand highly specific for the σ (sigma) receptor population of the PCP receptors on the NMDA receptor-ionophore complex (Table 6).
(§3) Values are expressed as the percent inhibition of specific binding and […]

[4] = tested on: Sigma; test: Radioligand binding, Sigma, [3H]DTG; conditions: σ receptor population
Text: (§4) EAAs are known to play important roles in excitatory neurotransmission in partial seizures as discussed earlier.
(§5) EAAs are known to play important roles in excitatory transmission in partial seizures as discussed earlier.

[5] = tested on: PCF; test: Radioligand binding, PCP, [3H]TCP
Text: as §1, §2, §3

[6] = Rotorod ataxia test (neurotoxicity), mice, i.p.; conditions: mouse, in vivo, ip
Protocol: Neurotoxicity is evaluated in mice by the rotorod ataxia test. The animal is placed on a wooden rod of 11/8" diameter rotating at 6 rpm. Normal mice can remain on a rod rotating at this speed indefinitely.

[7] = tested on: maximal electroshock seizures; test: Maximal electroshock seizure (MES) test, anticonvulsant quantification in mice, i.p.; conditions: for ED50: Mus musculus, ip, read-out: ED50 MES; for P.I. MES (TD50/ED50): mice
Protocol: Screening Methodology to Determine Anticonvulsant Activity: In mice, i.p.: All compounds are solubilized in 0.5% methylcellulose. […] The compounds are administered intraperitoneally in a volume of 0.01 ml/gm to male Carworth Farms #1 mice weighing about 20 gm. All compounds are tested at least at three dose levels (30, 100 an 300 mg/kg) at 30 minutes and 4 hours after their administration.
(§7) The Maximal Electroshock Seizure Test (MES): Maximal electroshock seizures are elicited with a 60 Hz alternating current of 50 mA intensity in mice and about 150 mA in rats (5-7 times that necessary to elicit minimal electroshock seizures), delivered for 0.2 sec via corneal electrodes. A drop of 0.9% saline is instilled in the eye prior to application of the electrodes in order to prevent the death of the animal. Abolition of the hind limb tonic extension component of the seizure is defined as protection and results are expressed as number of animals protected/number of animals tested.
Anticonvulsant Quantification in Mice, i.p.: The ED50 values are determined in the MES, scMet and rotorod ataxia test.

[8] = tested on: maximal electroshock seizures; test: Maximal electroshock seizure (MES) test in the rat, p.o.; conditions: for responders at 50 mg/kg / ED50: Rattus norvegicus, po; for responders at 50 mg/kg: read-out: Percent protection at 50 mg/kg dose, p.o., in the MES Test in the rat; for ED50: read-out: ED50 MES
Text: as §7
This species will be subject of the complete anticonvulsant quantification test evaluation as described above, but after oral (gavage) administration of the candidate compound.
Neurological deficit in rats is examined by the positional sense test and gait and stance test. […] Inability to do so rapidly indicates a neurologic deficit. In the gait and stance test, a neurologic deficit is indicated by a circular or zigzag gait, ataxia, abnormal spread of the legs, abnormal body posture, tremor, hyperactivity, lack of exploratory behavior, somnolence, stupor, or catalepsy.

[9] = tested on: subcutaneous pentylenetetrazol seizures; test: Subcutaneous pentylenetetrazol (Metrazole) seizure threshold test (scMet), mice, i.p.; format: in vivo; conditions: Mus musculus, ip
Protocol: (§6) The Subcutaneous Pentylenetetrazol (Metrazole) Seizure Threshold Test (scMet): A 0.5% solution of 85 mg/kg of pentylenetetrazol is administered subcutaneously in the posterior midline. The animal is observed for 30 minutes.

[10] = in vivo; set-up: species or system rat (Sprague-Dawley); conditions: rat, po
Text: Inability to do so rapidly indicates a neurologic deficit.

[11] = tested on: subcutaneous pentylenetetrazol seizures; test: Subcutaneous pentylenetetrazol seizure threshold test (scMet), rat, p.o.; format: in vivo, rat (Sprague-Dawley); conditions: po
Protocol: as §6

[12] = target: Glycine (Homo sapiens, UniProt Q05586); test: Radioligand binding, Glycine (excitatory), [3H]glycine; conditions: reference compound, [3H]glycine
Text: as §4, §5

[13] = target: Adenosine; test: Radioligand binding, Adenosine; conditions: reference compound, Adenosine
Text: as §1, §2, §3

Compound	activity at the [3H]MK-801-binding receptor sites (in words) [3]	minimal effective dose [1]	inhibition of the binding of [3H]DTG (in words) [4]	activity at the [3H]TCP-binding receptor sites / PCP receptors (in words) [5]	responders at 50 mg/kg [8]	further results
Cc1ccc(N2N=NCC2c2ccncc2)cc1 (stereo not shown) [4-CH3, reference compound]	–	–	–	–	–	ASP classification (Table 8) [1]: II (Class II compounds show anticonvulsant activity at doses greater than 100 mg/kg or show activity at 100 mg/kg which is not reinforced by similar activity at 300 mg/kg)
COc1ccc(N2N=NCC2c2ccncc2)cc1 (stereo not shown) [4-OCH3, reference compound]	–	–	–	–	–	ASP classification (Table 8) [1]: III (Those failing to demonstrate anticonvulsant activity at doses up to 300 mg/kg are considered inactive)
Clc1ccc(N2N=NCC2c2ccncc2)cc1 (stereo not shown) [ADD17014, reference compound]	–	–	–	–	–	activity at 50 µM ([2]; 50 μM (K+), 30 mM K+, P < 0.001 vs K+ alone): 136 ± 6%; activity at 50 µM ([2]; 50 μM (basal)): 101 ± 9%; activity at 100 µM ([2]; 100 μM (K+), 30 mM K+, P < 0.001 vs K+ alone): 122 ± 5%; activity at 100 µM ([2]; 100 μM (basal)): 109 ± 4%
CC(Nc1ccc(Cl)c(Cl)c1)c1ccncc1 (stereo not shown) [Compound 1, 1-(3,4-Dicloroanilino)-1-(4-pyridyl)-ethan]	no activity	< 100 mg/kg	inhibit selectively	no activity	–	–
CC(Nc1cccc(Cl)c1)c1ccncc1 (stereo not shown) [Compound 3, 1-(3-Chloroanilino)-1-(4-pyridyl)-ethan]	no activity	< 100 mg/kg	inhibit selectively	no activity	50 to 75%	TD50 [6]: > 500 mg/kg; ED50 [7]: 95.5 mg/kg; P.I. MES (TD50/ED50) [7]: > 5.24; ED50 [9]: > 250 mg/kg
CC(Nc1ccc(Br)cc1)c1ccncc1 (stereo not shown) [Compound 4, 1-(4-Bromoanilino)-1-(4-pyridyl)-ethan]	no activity	< 100 mg/kg	inhibit selectively	no activity	75 to 100%	TD50 [6]: > 200 mg/kg; TD50 [10]: > 500 mg/kg; ED50 [7]: 62.7 mg/kg; P.I. MES (TD50/ED50) [7]: > 3.19; ED50 [8]: 20.9 mg/kg; P.I. MES (TD50/ED50) ([8]; rat, p.o.): > 23.93; ED50 [9]: > 200 mg/kg; ED50 [11]: > 250 mg/kg
CC(Nc1ccc(F)cc1)c1ccncc1 (stereo not shown) [Compound 5, 1-(4-Fluoroanilino)-1-(4-pyridyl)-ethan]	no activity	< 100 mg/kg	inhibit selectively	no activity	75 to 100%	TD50 [6]: 141 mg/kg; TD50 [10]: > 500 mg/kg; ED50 [7]: 57.4 mg/kg; P.I. MES (TD50/ED50) [7]: 2.46; ED50 [8]: 81.1 mg/kg; P.I. MES (TD50/ED50) ([8]; rat, p.o.): > 6.17; ED50 [9]: > 80 mg/kg; ED50 [11]: > 250 mg/kg
Cc1ccc(NC(C)c2ccncc2)cc1 (stereo not shown) [Compound 6, 1-(4-Methylanilino)-1-(4-pyridyl)-ethan]	no activity	< 100 mg/kg	inhibit selectively	no activity	–	ASP classification (Table 8) [1]: I (They demonstrate anticonvulsant activity in either the MES test or the scMet test, or both at doses of 100 mg/kg or 30 mg/kg without signs of neurological deficit)
COc1ccc(NC(C)c2ccncc2)cc1 (stereo not shown) [Compound 7, 1-(4-Methoxyanilino)-1-(4-pyridyl)-ethan]	–	< 100 mg/kg	–	–	25 to 50%	ASP classification (Table 8) [1]: I (They demonstrate anticonvulsant activity in either the MES test or the scMet test, or both at doses of 100 mg/kg or 30 mg/kg without signs of neurological deficit); protection at 50 mg/kg (Table 8) ([8]; 50 mg/kg, rat, p.o., MES): 25-50%
CC(Nc1ccccc1)c1ccncc1 (stereo not shown) [Compound 8, 1-(Anilino)-1-(4-pyridyl)-ethan]	no activity	< 100 mg/kg	inhibit selectively	no activity	50 to 75%	TD50 [6]: 161 mg/kg; TD50 [10]: > 500 mg/kg; ED50 [7]: 81.7 mg/kg; P.I. MES (TD50/ED50) [7]: 1.97; ED50 [8]: 48.4 mg/kg; P.I. MES (TD50/ED50) ([8]; rat, p.o.): > 10.33; ED50 [9]: < 300 mg/kg; ED50 [11]: > 250 mg/kg
CC(Nc1ccc(Cl)cc1)c1cccnc1 (stereo not shown) [Compound 9, 1-(4-Chloroanilino)-1-(3-pyridyl)-ethan]	no activity	< 100 mg/kg	inhibit selectively	no activity	25 to 75%	–
Clc1ccc(NCc2ccncc2)cc1Cl [Compound 10, 1-(3,4-Dichloroanilino)-1-(4-pyridyl)-methan]	no activity	< 100 mg/kg	inhibit selectively	no activity	50%	–
Clc1ccc(NCc2ccncc2)cc1 [Compound 11, 1-(4-Chloroanilino)-1-(4-pyridyl)-methan]	no activity	< 100 mg/kg	inhibit selectively	no activity	50 to 100%	TD50 ([6]; mice, i.p., read-out: TD50 (rotorod)): < 225 mg/kg; TD50 [10]: > 500 mg/kg; ED50 [7]: 68.4 mg/kg; P.I. MES (TD50/ED50) [7]: < 3.3; ED50 [8]: 39.1 mg/kg; P.I. MES (TD50/ED50) ([8]; rat, p.o.): > 12.8; ED50 [9]: 107 mg/kg; ED50 [11]: > 250 mg/kg
Clc1cccc(NCc2ccncc2)c1 [Compound 12, 1-(3-Chloroanilino)-1-(4-pyridyl)-methan]	no activity	< 100 mg/kg	inhibit selectively	no activity	> 50%	–
Brc1ccc(NCc2ccncc2)cc1 [Compound 13, 1-(4-Bromoanilino)-1-(4-pyridyl)-methan]	no activity	< 100 mg/kg	inhibit selectively	no activity	> 50%	–
Fc1ccc(NCc2ccncc2)cc1 [Compound 14]	–	< 100 mg/kg	–	–	25%	–
Cc1ccc(NCc2ccncc2)cc1 [Compound 15, 1-(4-Methylanilino)-1-(4-pyridyl)-methan]	–	< 100 mg/kg	–	–	–	–
COc1ccc(NCc2ccncc2)cc1 [Compound 16, 1-(4-Methoxyanilino)-1-(4-pyridyl)-methan]	–	< 100 mg/kg	–	–	–	–
C[C@@H](N)C(=O)O [D-Alanine, reference compound]	–	–	–	–	–	Ki [12]: 4900 nM
c1ccc(N2N=NCC2c2ccncc2)cc1 (stereo not shown) [H, reference compound]	–	–	–	–	–	ASP classification (Table 8) [1]: II (Class II compounds show anticonvulsant activity at doses greater than 100 mg/kg or show activity at 100 mg/kg which is not reinforced by similar activity at 300 mg/kg)
CNC(=O)[C@H]1O[C@@H](n2cnc3c(N)ncnc32)[C@H](O)[C@@H]1O [MECA, reference compound]	–	–	–	–	–	Ki [13]: 39.5 nM
C[C@]12N[C@H](Cc3ccccc31)c1ccccc12 [MK-801, reference compound]	–	–	–	–	–	Ki ([3]; reference compound, [3H]MK-801): 4.3 nM
c1ccc(C2(N3CCCCC3)CCCCC2)cc1 [PCP, phencyclidine, reference compound]	–	–	–	–	–	Ki ([5]; reference compound, [3H]TCP): 62.3 nM
